Target: T1, AM2 receptor (1321N1 cells transfected with CALCRL+RAMP3) (Homo sapiens, UniProt O60896+Q16602)
T1 construct: host or cells: 1321N1 cells
Test: AM2 receptor inhibition, LANCE cAMP agonist-antagonist competition assay
Type: cell-based
Conditions: inhibition of AM induced cAMP activation, read-out: AM2 D2 protocol: pIC50 (converted)
Outline: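 1321N1 cells co-expressing CALCRL and RAMP3 (2500/well) were preincubated with compound for 30 min at room temperature, then stimulated with adrenomedullin at its EC50 dose for 15 min in HBSS/HEPES/BSA buffer, pH 7.4. cAMP was measured by LANCE TR-FRET and normalised to forskolin (100%) and vehicle (0%) controls.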

T1 sequence (Q16602 23-461): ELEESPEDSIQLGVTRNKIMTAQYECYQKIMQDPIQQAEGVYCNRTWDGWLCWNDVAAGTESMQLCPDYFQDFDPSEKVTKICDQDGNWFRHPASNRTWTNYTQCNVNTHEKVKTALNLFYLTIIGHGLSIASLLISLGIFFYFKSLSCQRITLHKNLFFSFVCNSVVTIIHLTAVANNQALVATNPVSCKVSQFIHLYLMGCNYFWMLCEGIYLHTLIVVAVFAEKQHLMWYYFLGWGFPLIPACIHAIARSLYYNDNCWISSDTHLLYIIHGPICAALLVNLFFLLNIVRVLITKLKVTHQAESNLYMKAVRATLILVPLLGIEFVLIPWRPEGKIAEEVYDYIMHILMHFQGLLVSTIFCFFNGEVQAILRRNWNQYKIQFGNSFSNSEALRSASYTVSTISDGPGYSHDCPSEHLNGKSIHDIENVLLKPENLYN
T1 sequence (O60896 24-148): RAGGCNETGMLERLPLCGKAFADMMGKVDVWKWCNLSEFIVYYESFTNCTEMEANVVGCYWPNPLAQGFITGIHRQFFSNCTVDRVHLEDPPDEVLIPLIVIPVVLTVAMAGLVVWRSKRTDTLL

Row | SMILES | IC50
1 | CNCc1ccccc1CN(CC(=O)Nc1ccc2c(c1)C[C@@]1(C2)C(=O)Nc2ncccc21)C(=O)C1(C)CCN(C(=O)c2cccc(N)n2)CC1 [Example 10, (R)-1-(6-Aminopicolinoyl)-4-methyl-N-(2-((methylamino)methyl)benzyl)-N-(2-oxo-2-((2′-oxo-1,1′,2′,3-tetrahydrospiro[indene-2,3′-pyrrolo[2,3-b]pyridin]-5-yl)amino)ethyl)piperidine-4-carboxamide] | 8.91 nM
2 | CNCc1ccccc1CN(CC(=O)Nc1ccc2c(c1)C[C@@]1(C2)C(=O)Nc2ncccc21)C(=O)C1(CC(F)(F)F)CCN(C(C)=O)CC1 [Example 120, (R)-1-Acetyl-N-(2-((methylamino)methyl)benzyl)-N-(2-oxo-2-((2′-oxo-1,1′,2′,3-tetrahydrospiro[indene-2,3′-pyrrolo[2,3-b]pyridin]-5-yl)amino)ethyl)-4-(2,2,2-trifluoroethyl)piperidine-4-carboxamide] | 22.9 nM
3 | CCC1(C(=O)N(CC(=O)Nc2ccc3c(c2)C[C@@]2(C3)C(=O)Nc3ncccc32)Cc2ccccc2CNC)CCN(C(=O)C2CCC2)CC1 [Example 89, (R)-1-(Cyclobutanecarbonyl)-4-ethyl-N-(2-((methylamino)methyl)benzyl)-N-(2-oxo-2-((2′-oxo-1,1′,2′,3-tetrahydrospiro[indene-2,3′-pyrrolo[2,3-b]pyridin]-5-yl)amino)ethyl)piperidine-4-carboxamide] | 5.5 nM
4 | CCC1(C(=O)N(CC(=O)Nc2ccc3c(c2)C[C@@]2(C3)C(=O)Nc3ncccc32)Cc2ccccc2CNC)CCN(C(=O)C2CCCC2)CC1 [Example 75, (R)-1-(Cyclopentanecarbonyl)-4-ethyl-N-(2-((methylamino)methyl)benzyl)-N-(2-oxo-2-((2′-oxo-1,1′,2′,3-tetrahydrospiro[indene-2,3′-pyrrolo[2,3-b]pyridin]-5-yl)amino)ethyl)piperidine-4-carboxamide] | 5.75 nM
5 | CNCc1ccccc1CN(CC(=O)Nc1ccc2c(c1)CC1(C2)C(=O)Nc2ncccc21)C(=O)C1(C)CCN(C(=O)c2ccncc2)CC1 (stereo not drawn) [Example 6, 1-Isonicotinoyl-4-methyl-N-(2-((methylamino)methyl)benzyl)-N-(2-oxo-2-((2′-oxo-1,1′,2′,3-tetrahydrospiro[indene-2,3′-pyrrolo[2,3-b]pyridin]-5-yl)amino)ethyl)piperidine-4-carboxamide] | 2.29 nM
6 | CCC1(C(=O)N(CC(=O)Nc2ccc3c(c2)C[C@@]2(C3)C(=O)Nc3ncccc32)Cc2ccccc2CNC)CCN(C(=O)c2cn[nH]c2)CC1 [Example 85, (R)-4-Ethyl-N-(2-((methylamino)methyl)benzyl)-N-(2-oxo-2-((2′-oxo-1,1′,2′,3-tetrahydrospiro[indene-2,3′-pyrrolo[2,3-b]pyridin]-5-yl)amino)ethyl)-1-(1H-pyrazole-4-carbonyl)piperidine-4-carboxamide] | 3.8 nM
7 | CNCc1ccccc1CN(CC(=O)Nc1ccc2c(c1)CC1(C2)C(=O)Nc2ncccc21)C(=O)C1(C)CCN(C(=O)c2ccccc2)CC1 (stereo not drawn) [Example 4, 1-Benzoyl-4-methyl-N-(2-((methylamino)methyl)benzyl)-N-(2-oxo-2-((2′-oxo-1,1′,2′,3-tetrahydrospiro[indene-2,3′-pyrrolo[2,3-b]pyridin]-5-yl)amino)ethyl)piperidine-4-carboxamide] | 2.19 nM
8 | CCC1(C(=O)N(CC(=O)Nc2ccc3c(c2)C[C@@]2(C3)C(=O)Nc3ncccc32)Cc2ccccc2CNC)CCN(C(=O)c2cc(C(C)(C)C)n[nH]2)CC1 [Example 91, (R)-1-(3-(tert-Butyl)-1H-pyrazole-5-carbonyl)-4-ethyl-N-(2-((methylamino)methyl)benzyl)-N-(2-oxo-2-((2′-oxo-1,1′,2′,3-tetrahydrospiro[indene-2,3′-pyrrolo[2,3-b]pyridin]-5-yl)amino)ethyl)piperidine-4-carboxamide] | 34.7 nM
9 | CNCc1ccccc1CN(CC(=O)Nc1ccc2c(c1)C[C@@]1(C2)C(=O)Nc2ncccc21)C(=O)C1(C)CCN(c2ncccn2)CC1 [Example 60] | 38 nM
10 | CCC1(C(=O)N(CC(=O)Nc2ccc3c(c2)C[C@@]2(C3)C(=O)Nc3ncccc32)Cc2ccccc2CNC)CCN(C(=O)C(C)(C)C(F)(F)F)CC1 [Example 98, (R)-4-Ethyl-N-(2-((methylamino)methyl)benzyl)-N-(2-oxo-2-((2′-oxo-1,1′,2′,3-tetrahydrospiro[indene-2,3′-pyrrolo[2,3-b]pyridin]-5-yl)amino)ethyl)-1-(3,3,3-trifluoro-2,2-dimethylpropanoyl)piperidine-4-carboxamide] | 61.7 nM
11 | CNCc1ccccc1CN(CC(=O)Nc1ccc2c(c1)C[C@@]1(C2)C(=O)Nc2ncccc21)C(=O)C1(C)CCN(C(=O)c2ccncn2)CC1 [Example 24, (R)-4-Methyl-N-(2-((methylamino)methyl)benzyl)-N-(2-oxo-2-((2′-oxo-1,1′,2′,3-tetrahydrospiro[indene-2,3′-pyrrolo[2,3-b]pyridin]-5-yl)amino)ethyl)-1-(pyrimidine-4-carbonyl) piperidine-4-carboxamide] | 2.95 nM
12 | CNCc1ccccc1CN(CC(=O)Nc1ccc2c(c1)C[C@@]1(C2)C(=O)Nc2ncccc21)C(=O)C1(C)CCN(C(=O)N2CCC2)CC1 [Example 54, (R)-1-(Azetidine-1-carbonyl)-4-methyl-N-(2-((methylamino)methyl)benzyl)-N-(2-oxo-2-((2′-oxo-1,1′,2′,3-tetrahydrospiro[indene-2,3′-pyrrolo[2,3-b]pyridin]-5-yl)amino)ethyl)piperidine-4-carboxamide] | 3.8 nM
13 | CCC1(C(=O)N(CC(=O)Nc2ccc3c(c2)C[C@@]2(C3)C(=O)Nc3ncccc32)Cc2ccccc2CNC)CCN(C(=O)[C@@H](N)c2ccccc2)CC1 [Example 79, 1-((S)-2-Amino-2-phenylacetyl)-4-ethyl-N-(2-((methylamino)methyl)benzyl)-N-(2-oxo-2-(((R)-2′-oxo-1,1′,2′,3-tetrahydrospiro[indene-2,3′-pyrrolo[2,3-b]pyridin]-5-yl)amino)ethyl)piperidine-4-carboxamide] | 7.41 nM
14 | CNCc1ccccc1CN(CC(=O)Nc1ccc2c(c1)C[C@@]1(C2)C(=O)Nc2ncccc21)C(=O)C1(C)CCN(C(=O)C[C@H]2CCNC2)CC1 [Example 11, 4-Methyl-N-(2-((methylamino)methyl)benzyl)-N-(2-oxo-2-(((R)-2′-oxo-1,1′,2′,3-tetrahydrospiro[indene-2,3′-pyrrolo[2,3-b]pyridin]-5-yl)amino)ethyl)-1-(2-((R)-pyrrolidin-3-yl)acetyl)piperidine-4-carboxamide] | 6.46 nM
15 | CCC1(C(=O)N(CC(=O)Nc2ccc3c(c2)C[C@@]2(C3)C(=O)Nc3ncccc32)Cc2ccccc2CNC)CCS(=O)(=O)CC1 [Example 147, (R)-4-Ethyl-N-(2-((methylamino)methyl)benzyl)-N-(2-oxo-2-((2′-oxo-1,1′,2′,3-tetrahydrospiro[indene-2,3′-pyrrolo[2,3-b]pyridin]-5-yl)amino)ethyl)tetrahydro-2H-thiopyran-4-carboxamide 1,1-dioxide] | 10.5 nM
16 | CNCc1ccccc1CN(CC(=O)Nc1ccc2c(c1)C[C@@]1(C2)C(=O)Nc2ncccc21)C(=O)C1(C)CCCN(C(C)=O)CC1 (stereo partly drawn) [Example 149, 1-Acetyl-4-methyl-N-(2-((methylamino)methyl)benzyl)-N-(2-oxo-2-(((R)-2′-oxo-1,1′,2′,3-tetrahydrospiro[indene-2,3′-pyrrolo[2,3-b]pyridin]-5-yl)amino)ethyl)azepane-4-carboxamide] | 2.88 nM
17 | CCC1(C(=O)N(CC(=O)Nc2ccc3c(c2)C[C@@]2(C3)C(=O)Nc3ncccc32)Cc2ccccc2CNC)CCN(C(=O)[C@@H]2COCCN2)CC1 [Example 93, 4-Ethyl-N-(2-((methylamino)methyl)benzyl)-1-((S)-morpholine-3-carbonyl)-N-(2-oxo-2-(((R)-2′-oxo-1,1′,2′,3-tetrahydrospiro[indene-2,3′-pyrrolo[2,3-b]pyridin]-5-yl)amino)ethyl)piperidine-4-carboxamide] | 18.6 nM
18 | CC(=O)N1CCC(C)(C(=O)N(CC(=O)Nc2ccc3c(c2)C[C@@]2(C3)C(=O)Nc3ncccc32)Cc2ccccc2CN)CC1 [Example 132, (R)-1-Acetyl-N-(2-(aminomethyl)benzyl)-4-methyl-N-(2-oxo-2-((2′-oxo-1,1′,2′,3-tetrahydrospiro[indene-2,3′-pyrrolo[2,3-b]pyridin]-5-yl)amino)ethyl)piperidine-4-carboxamide] | 148 nM
19 | CCC1(C(=O)N(CC(=O)Nc2ccc3c(c2)C[C@@]2(C3)C(=O)Nc3ncccc32)Cc2ccccc2CNC)CCN(C(=O)[C@@H](C)NC)CC1 [Example 77, 4-Ethyl-N-(2-((methylamino)methyl)benzyl)-1-((R)-2-(methylamino)propanoyl)-N-(2-oxo-2-(((R)-2′-oxo-1,1′,2′,3-tetrahydrospiro[indene-2,3′-pyrrolo[2,3-b]pyridin]-5-yl)amino)ethyl)piperidine-4-carboxamide] | 24 nM
20 | CNCc1ccccc1CN(CC(=O)Nc1ccc2c(c1)C[C@@]1(C2)C(=O)Nc2ncccc21)C(=O)C1(OC)CCN(C(C)=O)CC1 [Example 127, 1-Acetyl-4-methoxy-N-[[2-(methylaminomethyl)phenyl]methyl]-N-[2-oxo-2-[[(3R)-2-oxospiro[1H-pyrrolo[2,3-b]pyridine-3,2′-indane]-5′-yl]amino]ethyl]piperidine-4-carboxamide] | 24.5 nM
21 | CNCc1ccc(F)cc1CN(CC(=O)Nc1ccc2c(c1)C[C@@]1(C2)C(=O)Nc2ncccc21)C(=O)C1(C)CCNCC1 [Example 135, (R)—N-(5-Fluoro-2-((methylamino)methyl)benzyl)-4-methyl-N-(2-oxo-2-((2′-oxo-1,1′,2′,3-tetrahydrospiro[indene-2,3′-pyrrolo[2,3-b]pyridin]-5-yl)amino)ethyl)piperidine-4-carboxamide] | 55 nM
